Reference: US4994459A, “Aryloxypropane substituted piperazine derivatives with antiarrhythmic and antifibrillatory activity” (American Home Products Corporation, priority 1989, dated 1991)

Columns and labels:
[1] = tested on: Anesthetized Dog; assay: Cardiac electrophysiology in anesthetized dogs (refractory periods, conduction times, heart rate, blood pressure); format: in vivo; parameters: ACT (atrial conduction time), change / VCT (ventricular conduction time), change / BP, change: unit not given here; conditions: 5 mg/kg i.v.; for ACT (atrial conduction time), change / AERP (refractory period of the right atrium), change / VCT (ventricular conduction time), change / VERP (refractory period of the right ventricle), change: BCL = 300, Example 1 n = 3; for BP, change / HR, change: Example 1 n = 3
Procedure: The compounds of this invention display a Class III antiarrhythmic profile. The Class III antiarrhythmic activity was established in vitro and in vivo in accordance with the following standard test procedures. Mongrel dogs of both sexes weighing 12 to 18 kg were anesthetized with sodium pentobarbital (35 mg/kg i.v. supplemented with 5 mg/kg/h) and artificially ventilated with room air (minute volume: 200 mL/kg). The heart was exposed by a right thoractomy performed at the fifth intercostal space and suspended in a pericardial cradle. Epicardial electrodes for stimulation and recording were sutured to the free wall of the lower right atrium and near the base of the right ventricle. Each electrode set contained a linear array of electrodes consisting of 1 bipolar stimulating electrode and 2 bipolar recording electrodes embedded in a rigid acrylic matrix. The stimulating bipole was 7 mm from the proximal recording electrode, which in turn was 10 mm from the distal recording bipole. Each electrode array was oriented to be parallel to the epicardial fiber axis. […] Conduction times and refractory periods were measured during pacing at a cycle length of 300 msec. The dog heart was paced by a stimulator driving a constant current isolation unit. […] Diastolic threshold was determined before and after each trial. Refractory periods of the right atrium and right ventricle ([…]) were determined by introducing an extrastimulus (S2) every 8 paced beats (S1). The extrastimulus was followed by a 4-second rest interval during which no pacing occurred. Both S1 and S2 were of identical intensity (twice threshold) and duration (2 msec). […] This S1 -S2 interval was considered to define effective refractory period. Atrial and ventricular (ACT and VCT) conduction times were measured as the time interval between the 2 electrograms recorded at the proximal and distal sites of the recording electrode array. The time of activation for electrograms with predominantly biphasic complexes was taken as the moment when the trace crossed the zero reference line, and for triphasic complexes, as the peak of the major deflection. Animals received the test compound by i.v. injection. Drugs were administered cumulatively at the following dose levels: 1, 2.5, 5, 7.5, 10 mg/kg. Each dose was administered over a 3 minute period. Electrophysiologic testing was performed 15 minutes following the end of dosing. Every 30 minutes the dog received the next incremental dose. […] An increase in ERP that occurred without a significant decrease of CT was taken, by definition to indicate "in vivo" Class III antiarrhythmic activity.

[2] = tested on: Purkinje fiber; assay: Cardiac electrophysiology in vitro, dog Purkinje fibers (action potential parameters); format: cell-based; parameters: unit not given here; conditions: 3 μM
Procedure: The compounds of this invention display a Class III antiarrhythmic profile. The Class III antiarrhythmic activity was established in vitro and in vivo in accordance with the following standard test procedures. Bundles of free-running Purkinje fibers with attached myocardium obtained from either ventricle of adult dog heart were pinned without stretching to the bottom of a 10 mL tissue chamber and continuously superfused with oxygenated Tyrode's solution at a flow rate of 5 mL/min. The composition of the Tyrode's solution was (mM): NaCl, 138; KCl 4; CaCl2, 2; MgCl2 0.5; NaHCO3, 24; dextrose, 5.5. The solution was aerated with 95% O2 -5% CO2 at 37° C. Bath temperature was maintained at 37±0.5° C. by circulating the pre-warmed superfusate through a thermostatically controlled water bath immediately prior to entering the tissue chamber. The preparations were stimulated through bipolar Teflon-coated silver wires, bared at the tips, placed on the endocardial surface of the attached myocardium, using a digital stimulator set to deliver constant current pulses 1.5-msec in duration at cycle lengths of 300 or 1000 msec. Stimulus strength was set at approximately 2×diastolic threshold, and adjusted as required throughout the experiment. All preparations were allowed to equilibrate in the tissue chamber for at least 1 hour before measurements were begun. Subsequently, a minimum of 60 minutes were allowed for equilibration with each drug-containing superfusate before post-drug measurements were made. Impalements were made at 6 to 10 sites throughout the preparation before and after drug exposure. Offset potentials were rechecked after each impalement. Glass microelectrodes filled with 3M KCl were coupled to high impedance negative capacitance electrometers and Ag/AgCl half-cells used as reference electrodes. The first derivative of the action potential upstroke (Vmax) was obtained using an analog differentiator circuit, coupled to a peak-hold circuit that retained the recorded value of Vmax for 30 to 70-msec. […] In addition, chart paper recordings of Vmax were obtained using the peak-hold device output. Fresh stock solutions of drug were prepared for each experiment. […] Action potential (AP) parameters measured included: diastolic take-off potential or activation voltage, (Vact); AP overshoot (Vos); AP duration measured as the time taken to repolarize to -20 mV (APD-20),-60 mV (APD-60), and -80 mV (APD-80); and maximal upstroke velocity (Vmax). An increase in APD-60 that occurred without a significant change in Vmax was taken, by definition, to indicate Class III antiarrhythmic activity "in vitro".

[3] = dextro enantiomer; Taggart et al. 1985, McComb et al. 1985; cited from earlier work
[4] = tested on: Pigs (Durrock-Landrace cross); assay: Coronary occlusion-reperfusion in anesthetized pigs (20 min LAD occlusion, then reperfusion; survival); format: in vivo, pig; conditions: 20 minutes before LAD occlusion
Procedure: Pigs (Durrock-Landrace cross) of either sex weighing 12 to 24 kg were anesthetized by administration of sodium pentobarbital. (35 mg/kg i.p. and supplemented with 5 mg/kg/hr. i.v.) and ventilated with room air following tracheotomy (minute volume: 200 mL/kg). The left femoral artery and vein were cannulated for the recording of blood pressure and for drug administration, respectively. Blood pressure and lead II EKG were recorded on a chart recorder.
The heart was exposed by a left thoracotomy performed at the fifth intercostal space. A silk ligature was placed beneath the left anterior descending coronary artery (LAD) about 1.5 cm from its origin and distal to the septal artery branch. The artery was occluded by lifting the vessel with the ligature and quickly placing a bull-dog clamp (3×12 mm padded jaws) over the artery. The clamp remained in place for a period of 20 minutes. Removal of the clamp produced a rapid reperfusion of the ischemic myocardium as evidenced by the return of normal color to the myocardium distal to the site of occlusion. Ectopic activity was monitored during occlusion and reperfusion by recording the lead II EKG at chart speeds of 5 to 25 mm/second. Animals were allowed to stabilize for at least 30 minutes prior to drug administration.
Pigs were randomized into groups receiving either vehicle or test drug at a given dose (1-5 mg/kg i.v.) 20 minutes before LAD occlusion. Animals surviving the period of occlusion were subsequently reperfused. No attempt was made to resuscitate animals experiencing ventricular fibrillation (VF) at any time following occlusion. In the absence of treatment, less than 30 percent of the animals survive the 20 minute period of occlusion, with a mean time to death onset of 8 to 12 minutes. Effective compounds either prevent death due to VF or prolong survival time.

Row | SMILES | ACT (atrial conduction time), change [1] | AERP (refractory period of the right atrium), change [1] | VCT (ventricular conduction time), change [1] | VERP (refractory period of the right ventricle), change [1] | BP, change [1] | HR, change [1] | APD-60 (AP duration, time to repolarize to -60 mV), change ([2]; BCL = 300, Example 1 n = 2) | Vmax (maximal upstroke velocity), change ([2]; BCL = 300, Example 1 n = 2) | APD-60 (AP duration, time to repolarize to -60 mV), change ([2]; BCL = 1000, Example 1 n = 3) | Vmax (maximal upstroke velocity), change ([2]; BCL = 1000, Example 1 n = 3) | selective Class III antiarrhythmic activity [3] | Fraction of pigs surviving 20 min. occlusion ([4]; 2.5 mg/Kg i.v.) | Fraction of pigs surviving reperfusion ([4]; 2.5 mg/Kg i.v.) | Fraction of pigs surviving 20 min. occlusion ([4]; 5 mg/Kg i.v.) | Fraction of pigs surviving reperfusion ([4]; 5 mg/Kg i.v.)
1 | CS(=O)(=O)Nc1ccc(OCC(O)CN2CCN(c3ccccn3)CC2)cc1 (centres unmarked) [Example 5, N-[4-[2-Hydroxy-3-[4-(2-pyridinyl)-1-piperazinyl]propoxy]phenyl]methanesulfonamide] | 6 | 56 | 3 | 13 | -25 | -15 | 30 | 7 | 50 | 14 | – | – | – | – | –
2 | CS(=O)(=O)Nc1ccc(OCC(O)CN2CCN(c3ncccn3)CC2)cc1 (centres unmarked) [Example 4, N-[4-[2-Hydroxy-3-[4-(2-pyrimidinyl)-1-piperazinyl]-propoxy]phenyl]methanesulfonamide] | -4 | 24 | 0 | 13 | -16 | -14 | 16 | -12 | 33 | -17 | – | – | – | – | –
3 | CC(C)NCC(O)c1ccc(NS(C)(=O)=O)cc1 (centres unmarked) [Sotalol, 4-(2-isopropylamino-1-hydroxyethyl)-methane-sulfonamide] | – | – | – | – | – | – | – | – | – | – | selective Class III antiarrhythmic activity | – | – | – | –
4 | Cl.Cl.O=[N+]([O-])c1ccc(OCC(O)CN2CCN(c3ccccn3)CC2)cc1 (racemic) [Example 1, α-[(4-Nitrophenoxy)methyl]-4-(2-pyridinyl)-1-piperazineethanol Dihydrochloride] | 16 ± 1 | 69 ± 7 | -7 ± 9 | 25 ± 3 | -33 ± 9 | -33 ± 1 | 15 | -19 | 29 ± 6 | -8 ± 5 | – | 1/4 | 0/4 | 4/4 | 2/4
